Test results from patent publication US10000501B2, “Inhibitors of HIF prolyl hydroxylase” (MERCK SHARP & DOHME CORP., priority 2014, dated 2018).

Biological target: T1, human HIF-PHD2 (Homo sapiens, UniProt Q9GZT9)
T1 construct: FLAG-tagged full length PHD2 expressed in and purified from baculovirus-infected Sf9 cells; FLAG; made in house; host or cells: baculovirus-infected Sf9 cells
Test: HIF-PHD2 inhibition assay (hydroxylation of HIF-1α peptide, time resolved fluorescence)
Assay type: biochemical
Conditions: FLAG-tagged full length PHD2; 0.2 μM 2-oxoglutarate, 0.5 μM HIF-1α peptide
Experimental: To each well of a 384-well plate, 1 μL of test compounds in DMSO (final concentration ranging from 0.3 nM to 10 uM) were added into 20 μl of assay buffer (50 mM Tris pH 7.4/0.01% Tween-20/0.1 mg/ml bovine serum albumin/10 μM ferrous sulfate/1 mM sodium ascorbate/20 μg/ml catalase) containing 0.15 μg/ml FLAG-tagged full length PHD2 expressed in and purified from baculovirus-infected Sf9 cells. […] Purif.

T1 sequence (Q9GZT9 whole entry): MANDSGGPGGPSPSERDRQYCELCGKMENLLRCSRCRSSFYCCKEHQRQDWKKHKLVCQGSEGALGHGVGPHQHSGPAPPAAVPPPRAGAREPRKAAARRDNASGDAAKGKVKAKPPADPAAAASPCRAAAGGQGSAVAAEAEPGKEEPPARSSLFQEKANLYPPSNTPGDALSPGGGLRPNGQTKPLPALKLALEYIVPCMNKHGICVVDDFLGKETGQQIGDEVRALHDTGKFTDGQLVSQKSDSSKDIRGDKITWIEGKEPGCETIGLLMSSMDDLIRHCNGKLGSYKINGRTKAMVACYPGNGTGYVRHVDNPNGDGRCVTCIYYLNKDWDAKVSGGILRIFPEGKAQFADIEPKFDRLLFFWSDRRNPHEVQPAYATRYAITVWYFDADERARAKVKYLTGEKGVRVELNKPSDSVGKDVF

IC50 [nM]	Structure (SMILES)
30.8	CNC(=O)c1ccc(Cn2c3c(c(O)c(C(=O)NCC(=O)O)c2=O)COCC3)cc1 [Example 26, 2-(4-Hydroxy-1-(4-(methylcarbamoyl)benzyl)-2-oxo-2,5,7,8-tetrahydro-1H-pyrano[4,3-b]pyridine-3-carboxamido)acetic acid]
19.3	O=C(O)CNC(=O)c1c(O)c2c(n(Cc3ccc(Cl)cc3F)c1=O)COCC2 [Example 47, 2-(1-(4-chloro-2-fluorobenzyl)-4-hydroxy-2-oxo-2,5,6,8-tetrahydro-1H-pyrano[3,4-b]pyridine-3-carboxamido)acetic acid]
19	CN1Cc2c(c(O)c(C(=O)NCC(=O)O)c(=O)n2Cc2ccc(S(C)(=O)=O)cc2)CC1=O [Example 71, 2-(4-hydroxy-7-methyl-1-(4-(methylsulfonyl)benzyl)-2,6-dioxo-1,2,5,6,7,8-hexahydro-1,7-naphthyridine-3-carboxamido)acetic acid]
8.9	O=C(O)CNC(=O)c1c(O)c2c(n(Cc3nc4ccccc4s3)c1=O)COCC2 [Example 48, 2-(1-(benzo[d]thiazol-2-ylmethyl)-4-hydroxy-2-oxo-2,5,6,8-tetrahydro-1H-pyrano[3,4-b]pyridine-3-carboxamido)acetic acid]
10.3	O=C(O)CNC(=O)c1c(O)c2c(n(Cc3ccc(F)cc3F)c1=O)CCOC2 [Example 16, 2-(1-(2,4-difluorobenzyl)-4-hydroxy-2-oxo-2,5,7,8-tetrahydro-1H-pyrano[4,3-b]pyridine-3-carboxamido)acetic acid]
13.7	O=C(O)CNC(=O)c1c(O)c2c(n(Cc3ccc(F)cc3)c1=O)CCOC2 [Example 9, 2-(1-(4-fluorobenzyl)-4-hydroxy-2-oxo-2,5,7,8-tetrahydro-1H-pyrano[4,3-b]pyridine-3-carboxamido)acetic acid]
37.7	O=C(O)CNC(=O)c1c(O)c2c(n(Cc3ccc4ccccc4c3)c1=O)CCOC2 [Example 21, 2-(4-hydroxy-1-(naphthalen-2-ylmethyl)-2-oxo-2,5,7,8-tetrahydro-1H-pyrano[4,3-b]pyridine-3-carboxamido)acetic acid]
61	O=C(O)CNC(=O)c1c(O)c2c(n(Cc3nc(-c4ccccc4)cs3)c1=O)C1CCC2C1 (centres unmarked) [Example 85, 2-(-4-hydroxy-2-oxo-1-((4-phenylthiaozl-2-yl)methyl)-1,2,5,6,7,8-hexahydro-5,8-methanoquinoline-3-carboxamido)acetic acid]
50.2	O=C(O)CNC(=O)c1c(O)c2c(n(Cc3ccc(Cl)cc3)c1=O)COCC2 [Example 37, 2-(1-(4-Chlorobenzyl)-4-hydroxy-2-oxo-2,5,6,8-tetrahydro-1H-pyrano[3,4-b]pyridine-3-carboxamido)acetic acid]
90.1	Cc1cc(Cn2c3c(c(O)c(C(=O)NCC(=O)O)c2=O)CCOC3)ccc1C#N [Example 45, 2-(1-(4-cyano-3-methylbenzyl)-4-hydroxy-2-oxo-2,5,6,8-tetrahydro-1H-pyrano[3,4-b]pyridine-3-carboxamido)acetic acid]
32.6	Cn1ccc(Cn2c3c(c(O)c(C(=O)NCC(=O)O)c2=O)COCC3)n1 [Example 27, 2-(4-Hydroxy-1-((1-methyl-1H-pyrazol-3-yl)methyl)-2-oxo-2,5,7,8-tetrahydro-1H-pyrano[4,3-b]pyridine-3-carboxamido)acetic acid]
55.1	Cn1ccc(Cn2c3c(c(O)c(C(=O)NCC(=O)O)c2=O)CCOC3)n1 [Example 50, 2-(4-hydroxy-1-((1-methyl-1H-pyrazol-3-yl)methyl)-2-oxo-2,5,6,8-tetrahydro-1H-pyrano[3,4-b]pyridine-3-carboxamido)acetic acid]
19	O=C(O)CNC(=O)c1c(O)c2c(n(Cc3cnc(-c4ccccc4)s3)c1=O)C1CCC2C1 (centres unmarked) [Example 84, 2-(-4-hydroxy-2-oxo-1-((2-phenylthiazol-5-yl)methyl)-1,2,5,6,7,8-hexahydro-5,8-methanoquinoline-3-carboxamido)acetic acid]
13.5	O=C(O)CNC(=O)c1c(O)c2c(n(Cc3ccc(-c4ccc(Cl)cc4)cc3)c1=O)COCC2 [Example 67, 2-(1-((4′-chloro-[1,1′-biphenyl]-4-yl)methyl)-4-hydroxy-2-oxo-2,5,6,8-tetrahydro-1H-pyrano[3,4-b]pyridine-3-carboxamido)acetic acid]
35.2	N#Cc1cccc(Cn2c3c(c(O)c(C(=O)NCC(=O)O)c2=O)CCOC3)c1 [Example 57, 2-(1-(3-cyanobenzyl)-4-hydroxy-2-oxo-2,5,6,8-tetrahydro-1H-pyrano[3,4-b]pyridine-3-carboxamido)acetic acid]
16	N#Cc1ccc(Cn2c3c(c(O)c(C(=O)NCC(=O)O)c2=O)COCC3)cc1F [Example 29, 2-(1-(4-Cyano-3-fluorobenzyl)-4-hydroxy-2-oxo-2,5,7,8-tetrahydro-1H-pyrano[4,3-b]pyridine-3-carboxamido)acetic acid]

IC50 [nM]	Structure (SMILES)
10.4	CN1Cc2c(c(O)c(C(=O)NCC(=O)O)c(=O)n2Cc2ccc(C#N)cc2F)CC1=O [Example 70, 2-(1-(4-Cyano-2-fluorobenzyl)-4-hydroxy-7-methyl-2,6-dioxo-1,2,5,6,7,8-hexahydro-1,7-naphthyridine-3-carboxamido)acetic acid]
28.7	CS(=O)(=O)c1ccc(Cn2c3c(c(O)c(C(=O)NCC(=O)O)c2=O)CCOC3)cc1 [Example 41, 2-(4-hydroxy-1-(4-(methylsulfonyl)benzyl)-2-oxo-2,5,6,8-tetrahydro-1H-pyrano[3,4-b]pyridine-3-carboxamido)acetic acid]
14.4	N#Cc1ccc(Cn2c3c(c(O)c(C(=O)NCC(=O)O)c2=O)CCOC3)c(F)c1 [Example 44, 2-(1-(4-cyano-2-fluorobenzyl)-4-hydroxy-2-oxo-2,5,6,8-tetrahydro-1H-pyrano[3,4-b]pyridine-3-carboxamido)acetic acid]
28.8	O=C(O)CNC(=O)c1c(O)c2c(n(Cc3ccc(-c4ccc(OC(F)(F)F)cc4)cc3)c1=O)COCC2 [Example 66, 2-(4-hydroxy-2-oxo-1-((4′-(trifluoromethoxy)-[1,1′-biphenyl]-4-yl)methyl)-2,5,6,8-tetrahydro-1H-pyrano[3,4-b]pyridine-3-carboxamido)acetic acid]
78.5	CCn1c2c(c(O)c(C(=O)NCC(=O)O)c1=O)COCC2 [Example 19, 2-(1-ethyl-4-hydroxy-2-oxo-2,5,7,8-tetrahydro-1H-pyrano[4,3-b]pyridine-3-carboxamido)acetic acid]
17.2	CN1Cc2c(c(O)c(C(=O)NCC(=O)O)c(=O)n2Cc2cccc(C#N)c2)CC1=O [Example 73, 2-(1-(3-cyanobenzyl)-4-hydroxy-7-methyl-2,6-dioxo-1,2,5,6,7,8-hexahydro-1,7-naphthyridine-3-carboxamido)acetic acid]
7.8	NC(=O)c1ccc(-c2ccc(Cn3c4c(c(O)c(C(=O)NCC(=O)O)c3=O)CCOC4)cc2)cc1 [Example 68, 2-(1-((4′-carbamoyl-[1,1′-biphenyl]-4-yl)methyl)-4-hydroxy-2-oxo-2,5,6,8-tetrahydro-1H-pyrano[3,4-b]pyridine-3-carboxamido)acetic acid]
24.1	O=C(O)CNC(=O)c1c(O)c2c(n(Cc3ccc(F)cc3F)c1=O)COCC2 [Example 38, 2-(1-(2,4-difluorobenzyl)-4-hydroxy-2-oxo-2,5,6,8-tetrahydro-1H-pyrano[3,4-b]pyridine-3-carboxamido)acetic acid]
44.1	O=C(O)CNC(=O)c1c(O)c2c(n(Cc3cncs3)c1=O)COCC2 [Example 62, 2-(4-hydroxy-2-oxo-1-(thiazol-5-ylmethyl)-2,5,6,8-tetrahydro-1H-pyrano[3,4-b]pyridine-3-carboxamido)acetic acid]
6.7	CN1Cc2c(c(O)c(C(=O)NCC(=O)O)c(=O)n2Cc2ccc(C(F)(F)F)cc2)CC1=O [Example 3, 2-(4-Hydroxy-7-methyl-2,6-dioxo-1-(4-(trifluoromethyl)benzyl)-1,2,5,6,7,8-hexahydro-1,7-naphthyridine-3-carboxamido)acetic acid]
29.1	CC(C)Oc1ccc(Cn2c3c(c(O)c(C(=O)NCC(=O)O)c2=O)CCOC3)cc1 [Example 56, 2-(4-hydroxy-1-(4-isopropoxybenzyl)-2-oxo-2,5,6,8-tetrahydro-1H-pyrano[3,4-b]pyridine-3-carboxamido)acetic acid]
7.5	CN1Cc2c(c(O)c(C(=O)NCC(=O)O)c(=O)n2Cc2ccc(C#N)cc2)CC1=O [Example 74, 2-(1-(4-cyanobenzyl)-4-hydroxy-7-methyl-2,6-dioxo-1,2,5,6,7,8-hexahydro-1,7-naphthyridine-3-carboxamido)acetic acid]
15.6	COc1ccc(Cn2c3c(c(O)c(C(=O)NCC(=O)O)c2=O)COCC3)cc1 [Example 6, 2-(4-hydroxy-1-(4-methoxybenzyl)-2-oxo-2,5,7,8-tetrahydro-1H-pyrano[4,3-b]pyridine-3-carboxamido)acetic acid]
16.3	N#Cc1ccc(-c2ccc(Cn3c4c(c(O)c(C(=O)NCC(=O)O)c3=O)CCOC4)cc2)cc1 [Example 69, 2-(1-((4′-cyano-[1,1′-biphenyl]-4-yl)methyl)-4-hydroxy-2-oxo-2,5,6,8-tetrahydro-1H-pyrano[3,4-b]pyridine-3-carboxamido)acetic acid]
21.3	CNC(=O)c1ccc(Cn2c3c(c(O)c(C(=O)NCC(=O)O)c2=O)CCOC3)cc1 [Example 55, 2-(4-hydroxy-1-(4-(methylcarbamoyl)benzyl)-2-oxo-2,5,6,8-tetrahydro-1H-pyrano[3,4-b]pyridine-3-carboxamido)acetic acid]
43	O=C(O)CNC(=O)c1c(O)c2c(n(Cc3nc4ccccc4s3)c1=O)C1CCC2C1 (racemic) [Example 82, 2-((5S,8R)-1-(benzo[d]thiazol-2-ylmethyl)-4-hydroxy-2-oxo-1,2,5,6,7,8-hexahydro-5,8-methanoquinoline-3-carboxamido)acetic acid]
